Read-outs that look alike come from different tables or passages of the source.
Key:
[1] = tested on: apomorphine induced stereotypic behavior; assay: Antidopamine action, apomorphine induced stereotypic behavior; assay type: in vivo, rat; details: for Apomorphine Induced Stereotypic Behavior, sum of scores: maximum of 24
Procedure: Seven-week old male S.D. line rats were administered a test drug perorally and after the passage of 30 min, the dopamine agonist apomorphine was injected subcutaneously in an amount of 0.5 mg/kg. For the subsequent 5-30 min period, the intensity of stereotypic behavior that was induced in the rats by apomorphine was measured six times at 5-min intervals by a scoring method and the sum of the scores was determined (for a maximum of 24).

S.D. line male rats [2] = assay: Antianxiety effect, water drinking under punishment (Vogel); assay type: in vivo, rat; parameters: Antianxiety effect / Antianxiety effect, longevity: unit not given here; details: for change in vivo at 20 mg/kg: Rattus norvegicus, po, read-out: Antianxiety effect, Efficacy
Procedure: Antianxiety test was conducted in accordance with a method adapted from the method of Vogel et al. (Psychopharmacol., 21, 1-7, 1971). Stated more specifically, S.D. line male rats weighing 250-300 g were entirely kept from water for 24 h and then placed in a concrete experimental box. […] The bottom of the box was made of a stainless steel grid, from which electric shock (0.2 mA, 0.5 sec) could be applied to the limbs of rats. The test schedule was as follows: first, the rats were acclimatized to the experimental box and trained for drinking water; this was done for 3 min without electric shock. The quantity of water drunk by the rats was then measured (under non-punishment). Then, the rats were kept from drinking water for 24 h. Thereafter, the quantity of water drunk by each rat was measured (before administration of test compound) under such conditions that an electric shock was applied each time a rat drank one water drop (under punishment).Thirty minutes later, a test drug was administered perorally and after an additional 20 min, the quantity of water drunk by each rat was again measured under punishment (after administration of test compound). The quantity of water drunk by rats will decrease under punishment but it is known that the initial level can be restored by administering an antianxiety agent.
The antianxiety effect of a test compound was calculated by the following formula: [formula]
(§1) The procedure of Test Examples 2 and 3 were repeated except that test compounds were administered perorally in a dose of 10 mg/kg.
(§2) The procedures of Test Example 2 and 3 were repeated, except that test compounds were administered perorally in a dose of 20 mg/kg to check the longevity of their antianxiety and antidepressant effects for 0.5, 2 and 4 h.

S.D. line male rats [3] = assay: Antidepressant effect, compelled swim test (Porsolt), time over which rats remain motionless; assay type: in vivo, rat; details: peroral 20 mg/kg; for inhibition in vivo at 20 mg/kg: Rattus norvegicus, po, 0.5 h, 30 min before swim, read-out: Antidepressant effect, Efficacy
Procedure: An antidepression test was conducted in accordance with the method of Porsolt et al. (Europ. J. Pharmacol., 47, 379-391, 1978). Stated more specifically, 7-wk old S.D. line male rats were placed in a glass cylinder (18 cm^.phi. ×40 cm^H) for 15 min. The cylinder was filled with water (25° C.) to a depth of 15 cm. Thereafter, the rats were placed in a hot environment (32° C.) for 15 min before they were returned to the cage. Twenty-four hours later, the rats were compelled again to swim in the same cylinder for 5 min and the total time over which the rats remained motionless was measured. A test drug was administered perorally to each animal 30 min before it was compelled to swim for 5 min. Antidepressant agents are known to be capable of specifically reducing the time over which the rats would remain motionless (Psyehopharmaeol., 83, 1-16, 1984, and ibid., 94, 147-160, 1988). The antidepressant effect was calculated by the following formula: [formula]
as §1, §2

serotonin 1A receptor = molecular target: T1, serotonin 1A receptor (Rattus norvegicus, UniProt P19327); assay: Serotonin 1A receptor binding experiment (3H-8-OH-DPAT); details: rat cortex and hippocampal tissue, 0.5 nM 3H-8-OH-DPAT, IC50 in M
T1 construct: the cortex and hippocampal tissue were extracted from the brain; from tissue; host or cells: brain cortex and hippocampus of 7-week-old male S.D. rats, washed membrane homogenate
T1 sequence (P19327 1-422): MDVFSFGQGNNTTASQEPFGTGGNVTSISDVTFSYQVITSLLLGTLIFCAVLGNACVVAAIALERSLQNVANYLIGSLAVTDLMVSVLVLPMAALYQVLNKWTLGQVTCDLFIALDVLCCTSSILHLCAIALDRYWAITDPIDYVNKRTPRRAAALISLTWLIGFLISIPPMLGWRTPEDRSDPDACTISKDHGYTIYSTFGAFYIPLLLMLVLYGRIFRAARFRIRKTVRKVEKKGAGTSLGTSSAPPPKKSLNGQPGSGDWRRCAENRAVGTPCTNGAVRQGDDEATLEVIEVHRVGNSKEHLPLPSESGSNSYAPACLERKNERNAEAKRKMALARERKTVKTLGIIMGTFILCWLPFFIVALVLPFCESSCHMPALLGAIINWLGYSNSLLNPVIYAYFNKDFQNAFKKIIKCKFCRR
Procedure: (§3) Affinity for intracerebral serotonin 1A and serotonin 2 receptor was checked in accordance with the method of Hall et al. (J. Neurochem., 44, 1685-1695, 1985) and the method of Leysen et al. (Mol. Pharmacol., 21, 301-314, 1982).
(§4) Stated more specifically, the cortex and hippocampal tissue were extracted from the brain of 7-wk old S.D. line male rats, mixed with 20 volumes of Tris-HCl buffer (50 mM, pH 7.7) and homogenized with a Teflon homogenizer. Thereafter, the homogenate was centrifuged at 39800×g for 20 min and the supernatant was discarded. Forty volumes of a buffer were added to the precipitate and the mixture was homogenized with a Polytron homogenizer, with the homogenate being centrifuged under the same condition as set forth above. The same procedure was repeated two more times and the final precipitate was homogenized with 40 volumes of a buffer; thereafter, the homogenate was stored at least overnight at -80° C. On the day when binding experiments were to be conducted, the homogenate was thawed at room temperature and incubated at 37° C. for 20 min to remove the endogenous serotonin.
(§5) Thereafter, centrifugation was conducted at 39800×g for 20 min and 40 volumes of a buffer were added to the precipitate, followed by homogenization. This procedure was repeated three times; to the final precipitate, a buffer was added in 65 volumes for the case of serotonin 1A receptor and in 80 volumes for the case of serotonin 2 receptor and the mixture was homogenized in preparation for the binding experiments that are described below. All procedures of experimentation except storage in a frozen state and thawing at room temperature were conducted at 4° C. or below.
A reaction solution containing 0.5 nM (final concentration) of 3H-8-hydroxy-2-(di-n-propylamino)tetralin (8-OH-DPAT), […] and 500 μl of brain homogenate in 1.0 ml (final volume) of a buffer was incubated at 25° C. for 30 min. Thereafter, the reaction solution was filtered by rapid passage through a glass filler. The filter was washed rapidly with an ice-cooled buffer (3 ml) three times, put into a scintillation vial together with a scintillation cocktail, and left to stand overnight at 4° C. On the next day, the vial was agitated well and measurements were conducted with a scintillation counter. To determine the amount of specific binding, the amount of binding in the presence of excess unlabeled serotonin (10 μM) was subtracted from the total amount of binding. As an index for the affinity of a test compound for either receptor, the concentration at which the specific binding of ^3 H-DPAT was inhibited by 50% (IC50, M) was determined using computer software EBDA/LIGAND (Biosoft).

serotonin 2 receptor = molecular target: T2, serotonin 2 receptor (Rattus norvegicus, UniProt P14842); assay: Serotonin 2 receptor binding experiment (3H-ketancerine); details: rat cortex and hippocampal tissue; 0.5 nM 3H-ketancerine; IC50 in M; read-out: -logIC50 5-HT2 (converted)
T2 construct: the cortex and hippocampal tissue were extracted from the brain; from tissue; host or cells: brain cortex and hippocampus of 7-week-old male S.D. rats, washed membrane homogenate
Procedure: as §3, §4, §5
A reaction solution containing 0.5 nM (final concentration) of ^3 H-ketancerine and 500 μl of brain homogenate in 1.0 ml (final volume) of a buffer was incubated at 30° C. for 30 min. Subsequent procedures were the same as in the serotonin 1A receptor binding experiment and IC50 (M) was determined accordingly. To determine the amount of specific binding, the amount of binding in the presence of excess unlabelled methysergide ([…]) was subtracted from the total amount of binding.

S.D. line male rats [4] = assay: Sedative action, amount of spontaneous movement (Animex); assay type: in vivo, rat; details: for Amount of Spontaneous Movement: control 405.2 ± 47.7
Procedure: Seven-week old male S.D. line rats were administered a test drug perorally and after the passage of 30 min, the amount of spontaneous movement of the rats was measured for 10 min by means of Animex.

[5] = read-out: -logIC50 5-HT1A (converted)

T2 sequence (P14842 whole entry): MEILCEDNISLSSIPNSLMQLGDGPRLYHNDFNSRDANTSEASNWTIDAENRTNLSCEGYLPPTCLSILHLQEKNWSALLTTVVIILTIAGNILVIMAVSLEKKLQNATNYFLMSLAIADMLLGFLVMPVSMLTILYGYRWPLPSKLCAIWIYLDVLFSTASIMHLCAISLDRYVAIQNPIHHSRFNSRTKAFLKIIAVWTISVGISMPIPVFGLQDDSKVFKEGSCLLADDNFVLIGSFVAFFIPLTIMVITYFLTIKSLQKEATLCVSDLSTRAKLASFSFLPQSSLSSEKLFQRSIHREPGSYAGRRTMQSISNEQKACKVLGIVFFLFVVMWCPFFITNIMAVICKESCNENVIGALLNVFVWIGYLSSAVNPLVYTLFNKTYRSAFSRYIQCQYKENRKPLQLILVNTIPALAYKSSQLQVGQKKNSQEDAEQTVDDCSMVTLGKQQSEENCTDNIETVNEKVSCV

Compound | change in vivo at 20 mg/kg (S.D. line male rats [2]; peroral 20 mg/kg) | inhibition in vivo at 20 mg/kg (S.D. line male rats [3]) | Antianxiety effect (S.D. line male rats [2]; peroral 20 mg/kg) | Antidepressant effect (S.D. line male rats [3]) | IC50 (serotonin 1A receptor; [5]) | IC50 (serotonin 2 receptor) | further results
O=C1CC2(CCCC2)CC(=O)N1CCCCN1CCN(c2ncccn2)CC1 [Buspirone] | 37.5 ± 4.7% | -25.2 ± 3.9% | – | – | – | – | Apomorphine Induced Stereotypic Behavior, sum of scores ([1]; 10 mg/kg peroral, control 14.4 ± 0.9): 10.3; Apomorphine Induced Stereotypic Behavior, sum of scores ([1]; 20 mg/kg peroral, control 14.4 ± 0.9 (Comp. 1: 16.0 ± 1.1)): 0.7; Apomorphine Induced Stereotypic Behavior, sum of scores ([1]; 40 mg/kg peroral, control 14.4 ± 0.9): 0.2; Antidopamine action ([1]; peroral, apomorphine 0.5 mg/kg s.c.): stereotypic behavior induced by apomorphine was intensely compelled
Cc1ccc2c(c1)OCC(CNCCNC(=O)C13CC4CC(CC(C4)C1)C3)O2 (stereo not drawn) [Compound 3, N-{[2-(6-methyl-1,4-benzodioxan-2ylmethyl)amino]ethyl}tricyclo[3,3,1,1^3, ^7]decane-1-carboxyamide] | 63.9 ± 6.8% | 56.8 ± 9% | comparable effects to MDL-73005 | almost comparable effects to WY-50324 | 2.51 nM | 23.4 nM | –
O=C(NCCNCC1COc2ccc(Cl)cc2O1)C12CC3CC(CC(C3)C1)C2 (stereo not drawn) [Compound 4, N-{[2-(7-chloro-1,4-benzodioxan-2ylmethyl)amino]ethyl}tricyclo[3,3,1,1^3, ^7]decane-1-carboxyamide] | 76.8 ± 13.7% | 51.9 ± 8.2% | comparable effects to MDL-73005 | almost comparable effects to WY-50324 | 5.13 nM | 42.7 nM | –
COc1cccc2c1OC(CNCCNC(=O)C13CC4CC(CC(C4)C1)C3)CO2 (stereo not drawn) [Compound 5, N-{[2-(8-methoxy-1,4-benzodioxan-2ylmethyl)amino]ethyl}tricyclo[3,3,1,1^3'7]decane-1-carboxyamide] | 40.9 ± 7.3% | 97.6 ± 0.9% | almost comparable effects to WY-50324 | better antidepressant effects than WY-50324 | 0.347 nM | 10 nM | –
COc1cccc2c1OCC(CNCCNC(=O)C13CC4CC(CC(C4)C1)C3)O2 (stereo not drawn) [Compound 6, N-{[2-(5-methoxy-1,4-benzodioxan-2-ylmethyl)amino]ethyl}tricyclo[3,3,1^3, ^7]decane-1-carboxyamide] | 28.7 ± 9.5% | 82.2 ± 6.6% | – | better antidepressant effects than WY-50324 | 4.07 nM | 75.9 nM | –
Nc1ccc2c(c1)OC(CNCCNC(=O)C13CC4CC(CC(C4)C1)C3)CO2 (stereo not drawn) [Compound 12, N-{[2-(7-amino-1,4-benzodioxan-2-ylmethyl)amino]ethyl}tricyclo[3,3,1,1^3, ^7]decane-1-carboxyamide] | – | 57 ± 5.9% | – | almost comparable effects to WY-50324 | 0.398 nM | 200 nM | Antianxiety effect (S.D. line male rats [2]; peroral 10 mg/kg): 52.1 ± 2.5; Antianxiety and antidepressant effects (S.D. line male rats [2]; peroral 10 mg/kg, Table 6): superiority
O=C(NCCNCC1COc2cccc(O)c2O1)C12CC3CC(CC(C3)C1)C2 (stereo not drawn) [Compound 18, N-{[2-(8-hydroxy-1,4-benzodioxan-2ylmethyl)amino]ethyl}tricyclo[^3,3,1,1^3, ^7]decane-1-carboxyamide] | 80.1 ± 6.1% | 78.5 ± 4.5% | better effects than MDL-73005 | better antidepressant effects than WY-50324 | 0.158 nM | 50.1 nM | –
O=C1CC2(CCCC2)CC(=O)N1CCNCC1COc2ccccc2O1 (stereo not drawn) [MDL-73005, reference compound] | 67.6 ± 5.5% | 28.3 ± 10.9% | – | extremely weak antidepressant effect | 36.3 nM | > 1000 nM | Amount of Spontaneous Movement (S.D. line male rats [4]; 20 mg/kg peroral): 395.8 Counts/10 min; Amount of Spontaneous Movement (S.D. line male rats [4]; 40 mg/kg peroral): 331.5 Counts/10 min; Amount of Spontaneous Movement (S.D. line male rats [4]; 60 mg/kg peroral): 335.0 Counts/10 min; Sedative action / spontaneous movement (S.D. line male rats [4]; peroral 20-60 mg/kg): no appreciable sedative action; Antianxiety effect, longevity (S.D. line male rats [2]; peroral 20 mg/kg, 0.5 h after administration): 44.9; Antianxiety effect, longevity (S.D. line male rats [2]; peroral 20 mg/kg, 2.0 h after administration): 17.0; Antianxiety effect, longevity (S.D. line male rats [2]; peroral 20 mg/kg, 4.0 h after administration): 8.1
O=C1C2C3CCC(C3)C2C(=O)N1CCCCN1CCN(c2ncccn2)CC1 (stereo not drawn) [SM-3997, reference compound] | 48.5 ± 15.8% | -10.5 ± 10.6% | – | – | – | 550 nM | IC50 (serotonin 1A receptor; -logIC50 5-HT1A): 31.6 nM
